In PubChem BioAssay (NCI):
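Method: 48-hour compound exposure of cells in 96-well plates, five concentrations, linear interpolation of endpoints. TGI: total growth inhibition.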

Legend:
Test in all cases: NCI-60 cell line screen, 48 h
[1] = system: 786-0 renal
[2] = system: U251 CNS
[3] = system: HCT-116 colon
[4] = system: TK-10 renal
[5] = system: A549 NSCLC
[6] = system: MALME-3M melanoma
[7] = system: SW-620 colon
[8] = system: HL-60(TB) leukemia
[9] = system: NCI-H522 lung
[10] = system: PC-3 prostate

Measured: TGI

CSc1nc(=O)c2nc(-c3cccs3)c(-c3cccs3)nc2n1C
89.1 µM: [9]
> 100 µM: all other assays above
